Assay [1] is described as follows: Cytotoxicity against mouse BA/F3 cells. The format is functional. The settings on record: BaF3, read-out: LD50 (the source's name).
Assay [2] deals with Tyrosine-protein kinase ABL1 (Mus musculus) (UniProt P00520). Nature of the assay: Induction of translocation of cAbl in to mitochondria of mouse BA/F3 cells assessed as caspase9 cleavage. The following applies: BaF3.
Assay [3] has the same target. Description: Induction of translocation of cAbl in to mitochondria of mouse BA/F3 cells assessed as caspase 8 cleavage. The settings on record: BaF3.
Assay [4] addresses Bcr/Abl fusion protein (Homo sapiens) (UniProt P00519+P11274). Description: Binding affinity to Bcr-Abl expressed in mouse BA/F3 cells at 5 uM. The format is cell-based. The settings on record: BaF3.
The nature of assay [5]: Cytotoxicity against mouse BA/F3 cells overexpressing BCR-Abl T315I mutant. It counts as functional. The settings on record: BaF3, read-out: LD50 (the source's name).
Assay [6] has as its target Tyrosine-protein kinase ABL1 (Mus musculus) (UniProt P00520). Nature of the assay: Induction of translocation of cAbl in to mitochondria of mouse BA/F3 cells. The settings on record: BaF3.
Assay [7] has the same target. Description: Induction of nuclear translocation of cAbl of mouse BA/F3 cells. The format is cell-based. The following applies: BaF3.

Activity calls are given as the source filed them. The calls are words filed in the database; no cut-off is given here.

Chain of Tyrosine-protein kinase ABL1 (Mus musculus) (P00520 whole entry): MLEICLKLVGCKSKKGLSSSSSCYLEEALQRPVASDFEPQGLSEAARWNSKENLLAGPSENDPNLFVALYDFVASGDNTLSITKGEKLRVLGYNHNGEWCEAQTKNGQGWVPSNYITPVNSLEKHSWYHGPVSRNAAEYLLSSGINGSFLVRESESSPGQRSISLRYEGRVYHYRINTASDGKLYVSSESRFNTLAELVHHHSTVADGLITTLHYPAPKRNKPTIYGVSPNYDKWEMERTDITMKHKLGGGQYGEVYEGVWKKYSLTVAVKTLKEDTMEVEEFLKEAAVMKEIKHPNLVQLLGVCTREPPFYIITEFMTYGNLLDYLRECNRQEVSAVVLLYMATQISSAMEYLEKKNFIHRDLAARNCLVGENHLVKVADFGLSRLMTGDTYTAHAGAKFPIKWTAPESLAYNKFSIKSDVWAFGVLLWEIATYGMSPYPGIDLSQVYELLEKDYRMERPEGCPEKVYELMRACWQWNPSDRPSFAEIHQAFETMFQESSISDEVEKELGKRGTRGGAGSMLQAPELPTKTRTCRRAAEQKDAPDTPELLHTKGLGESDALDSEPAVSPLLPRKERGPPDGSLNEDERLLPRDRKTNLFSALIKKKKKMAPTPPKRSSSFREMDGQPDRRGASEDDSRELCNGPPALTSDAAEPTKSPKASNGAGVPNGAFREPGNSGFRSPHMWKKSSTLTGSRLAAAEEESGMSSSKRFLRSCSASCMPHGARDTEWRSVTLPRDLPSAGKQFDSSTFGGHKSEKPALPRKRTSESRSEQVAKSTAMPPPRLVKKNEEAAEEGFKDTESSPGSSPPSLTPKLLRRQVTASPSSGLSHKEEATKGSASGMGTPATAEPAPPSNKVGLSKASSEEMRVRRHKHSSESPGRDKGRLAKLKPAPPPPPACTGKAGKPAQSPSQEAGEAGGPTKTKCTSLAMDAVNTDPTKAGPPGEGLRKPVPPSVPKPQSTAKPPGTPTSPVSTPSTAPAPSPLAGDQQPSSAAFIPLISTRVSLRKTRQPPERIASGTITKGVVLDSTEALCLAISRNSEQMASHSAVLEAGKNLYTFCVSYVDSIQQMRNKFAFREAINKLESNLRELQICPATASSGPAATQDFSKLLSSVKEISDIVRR
Chain of Bcr/Abl fusion protein (Homo sapiens) (P00519 whole entry, looked up, the tested form may be a part): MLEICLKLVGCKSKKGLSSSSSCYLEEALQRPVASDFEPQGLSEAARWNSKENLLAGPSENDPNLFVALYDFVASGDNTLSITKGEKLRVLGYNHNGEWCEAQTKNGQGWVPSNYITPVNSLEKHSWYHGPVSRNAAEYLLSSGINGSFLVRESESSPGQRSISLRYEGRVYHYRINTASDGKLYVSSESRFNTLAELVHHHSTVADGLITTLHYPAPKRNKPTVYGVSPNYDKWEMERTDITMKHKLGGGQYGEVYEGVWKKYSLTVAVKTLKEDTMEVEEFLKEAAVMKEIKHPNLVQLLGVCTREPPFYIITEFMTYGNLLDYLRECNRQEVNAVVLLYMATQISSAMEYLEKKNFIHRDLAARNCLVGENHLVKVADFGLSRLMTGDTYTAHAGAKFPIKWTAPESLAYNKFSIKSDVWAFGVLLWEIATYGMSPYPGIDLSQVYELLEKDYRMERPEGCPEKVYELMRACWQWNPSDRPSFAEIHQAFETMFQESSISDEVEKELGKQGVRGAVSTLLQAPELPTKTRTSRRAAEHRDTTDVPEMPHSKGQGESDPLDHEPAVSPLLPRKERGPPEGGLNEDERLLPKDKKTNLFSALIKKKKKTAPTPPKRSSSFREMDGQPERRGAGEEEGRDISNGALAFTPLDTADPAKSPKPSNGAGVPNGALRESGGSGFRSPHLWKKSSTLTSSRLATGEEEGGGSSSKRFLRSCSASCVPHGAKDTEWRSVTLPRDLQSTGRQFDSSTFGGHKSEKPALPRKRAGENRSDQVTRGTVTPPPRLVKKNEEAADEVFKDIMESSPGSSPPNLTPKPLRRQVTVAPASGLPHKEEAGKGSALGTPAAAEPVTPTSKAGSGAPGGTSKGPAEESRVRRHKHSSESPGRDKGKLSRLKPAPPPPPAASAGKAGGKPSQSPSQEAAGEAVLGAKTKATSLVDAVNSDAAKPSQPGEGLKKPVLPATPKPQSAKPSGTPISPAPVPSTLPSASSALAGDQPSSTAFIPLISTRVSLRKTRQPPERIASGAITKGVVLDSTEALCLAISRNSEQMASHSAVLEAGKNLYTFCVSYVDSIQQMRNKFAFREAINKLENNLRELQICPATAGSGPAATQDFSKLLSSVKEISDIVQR
Chain of Bcr/Abl fusion protein (Homo sapiens) (P11274 whole entry, looked up, the tested form may be a part): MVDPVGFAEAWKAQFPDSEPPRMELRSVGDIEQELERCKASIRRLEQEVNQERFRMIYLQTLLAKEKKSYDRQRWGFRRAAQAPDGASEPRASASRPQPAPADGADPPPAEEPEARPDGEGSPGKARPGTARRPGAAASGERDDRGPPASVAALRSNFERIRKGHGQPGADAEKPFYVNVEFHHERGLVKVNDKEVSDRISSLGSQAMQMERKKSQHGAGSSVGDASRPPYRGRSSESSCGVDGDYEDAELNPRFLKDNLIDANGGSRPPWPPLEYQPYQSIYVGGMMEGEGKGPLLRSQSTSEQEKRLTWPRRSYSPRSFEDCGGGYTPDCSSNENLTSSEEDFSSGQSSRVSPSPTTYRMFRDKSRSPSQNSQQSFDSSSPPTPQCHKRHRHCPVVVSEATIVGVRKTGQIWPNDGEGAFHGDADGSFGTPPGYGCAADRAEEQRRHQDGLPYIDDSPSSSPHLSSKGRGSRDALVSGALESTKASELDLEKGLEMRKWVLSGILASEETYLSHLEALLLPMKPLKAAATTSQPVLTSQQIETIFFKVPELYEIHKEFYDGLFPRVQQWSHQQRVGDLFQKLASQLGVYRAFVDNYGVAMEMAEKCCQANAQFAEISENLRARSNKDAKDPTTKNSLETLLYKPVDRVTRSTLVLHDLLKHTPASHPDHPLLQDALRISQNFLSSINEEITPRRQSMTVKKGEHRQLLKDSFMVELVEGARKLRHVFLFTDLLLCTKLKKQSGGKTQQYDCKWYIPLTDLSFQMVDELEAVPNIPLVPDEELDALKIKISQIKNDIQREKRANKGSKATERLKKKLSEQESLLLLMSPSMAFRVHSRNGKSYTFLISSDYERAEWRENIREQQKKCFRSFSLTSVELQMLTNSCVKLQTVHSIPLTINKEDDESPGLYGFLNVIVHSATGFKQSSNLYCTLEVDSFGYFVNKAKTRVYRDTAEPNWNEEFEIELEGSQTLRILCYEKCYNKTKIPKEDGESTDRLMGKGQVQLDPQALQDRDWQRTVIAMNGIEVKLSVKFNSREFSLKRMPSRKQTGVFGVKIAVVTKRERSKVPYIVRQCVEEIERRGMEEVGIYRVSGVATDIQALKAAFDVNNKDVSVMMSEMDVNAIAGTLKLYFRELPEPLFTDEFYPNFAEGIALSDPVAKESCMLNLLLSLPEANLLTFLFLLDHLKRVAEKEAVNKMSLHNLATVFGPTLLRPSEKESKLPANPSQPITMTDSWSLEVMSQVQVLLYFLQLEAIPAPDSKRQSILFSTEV

For the compound `Cc1c(NC(=O)c2c(C(=O)O)cccc2C(=O)O)c(=O)n(-c2ccccc2)n1C`, the CC50 in assay [1] was determined as 1040 nM; in assay [5] it was 1470 nM. Besides, the result in assay [2], in assay [3], in assay [4], in assay [6] and in assay [7] was Active.

The record behind these values is ChEMBL document CHEMBL1255204, “Identification of the first non-peptidic small molecule inhibitor of the c-Abl/14-3-3 protein-protein interactions able to drive sensitive and Imatinib-resistant leukemia cells to apoptosis” (2010).
